Numbers after ± are expanded uncertainties.
Conditions: Liquid, Vibrating tube method

CC(C)CO [2-methyl-1-propanol]
Conditions | mass density [kg/m3]
353.15 K, 57869 kPa | 800.594 ± 0.95
353.15 K, 59971 kPa | 801.962 ± 0.96
353.15 K, 62015 kPa | 803.245 ± 0.96
353.15 K, 64989 kPa | 805.09 ± 0.97
353.15 K, 66151 kPa | 805.82 ± 0.97
358.15 K, 91.6 kPa | 747.694 ± 0.81
358.15 K, 304.9 kPa | 747.895 ± 0.81
358.15 K, 517.3 kPa | 748.147 ± 0.81
358.15 K, 850.1 kPa | 748.568 ± 0.81
358.15 K, 1095.5 kPa | 748.835 ± 0.81
358.15 K, 2101.6 kPa | 750.029 ± 0.81
358.15 K, 3210.6 kPa | 751.303 ± 0.81
358.15 K, 5324.2 kPa | 753.465 ± 0.82
358.15 K, 7190.1 kPa | 755.483 ± 0.82
358.15 K, 9074.3 kPa | 757.505 ± 0.82
358.15 K, 10165 kPa | 758.644 ± 0.83
358.15 K, 12208 kPa | 760.738 ± 0.83
358.15 K, 13986 kPa | 762.552 ± 0.83
358.15 K, 15000 kPa | 763.577 ± 0.84
358.15 K, 17866 kPa | 766.293 ± 0.84
358.15 K, 20104 kPa | 768.379 ± 0.85
358.15 K, 27962 kPa | 775.177 ± 0.87
358.15 K, 30131 kPa | 776.699 ± 0.87
358.15 K, 32076 kPa | 778.299 ± 0.88
358.15 K, 32938 kPa | 778.904 ± 0.88
358.15 K, 33039 kPa | 779.08 ± 0.88
358.15 K, 33914 kPa | 779.672 ± 0.88
358.15 K, 34978 kPa | 780.53 ± 0.89
358.15 K, 37986 kPa | 782.876 ± 0.9
358.15 K, 39996 kPa | 784.402 ± 0.9
358.15 K, 42079 kPa | 785.976 ± 0.91
358.15 K, 45119 kPa | 788.207 ± 0.92
358.15 K, 48100 kPa | 790.343 ± 0.93
358.15 K, 49987 kPa | 791.672 ± 0.93
358.15 K, 52101 kPa | 793.112 ± 0.94
358.15 K, 54983 kPa | 795.084 ± 0.95
358.15 K, 58017 kPa | 797.106 ± 0.95
358.15 K, 60055 kPa | 798.438 ± 0.96
358.15 K, 62083 kPa | 799.766 ± 0.97
358.15 K, 65016 kPa | 801.626 ± 0.98
358.15 K, 66339 kPa | 802.467 ± 0.98
358.16 K, 22005 kPa | 770.073 ± 0.85
358.16 K, 25079 kPa | 772.781 ± 0.86
363.15 K, 53.2 kPa | 742.307 ± 0.81
363.15 K, 125.5 kPa | 742.405 ± 0.81
363.15 K, 320.3 kPa | 742.647 ± 0.81
363.15 K, 562.5 kPa | 742.935 ± 0.81
363.15 K, 892.5 kPa | 743.339 ± 0.81
363.15 K, 1001.3 kPa | 743.446 ± 0.81
363.15 K, 1911.6 kPa | 744.576 ± 0.81
363.15 K, 2977.3 kPa | 745.832 ± 0.81
363.15 K, 4957.5 kPa | 748.169 ± 0.82
363.15 K, 6937.4 kPa | 750.436 ± 0.82
363.15 K, 8892.9 kPa | 752.564 ± 0.82
363.15 K, 10033 kPa | 753.801 ± 0.83
363.15 K, 11914 kPa | 755.769 ± 0.83
363.15 K, 14908 kPa | 758.826 ± 0.84
363.15 K, 17925 kPa | 761.773 ± 0.84
363.15 K, 19995 kPa | 763.754 ± 0.85
363.15 K, 21953 kPa | 765.578 ± 0.85
363.15 K, 24962 kPa | 768.273 ± 0.86
363.15 K, 27932 kPa | 770.858 ± 0.87
363.15 K, 30163 kPa | 772.879 ± 0.88
363.15 K, 32029 kPa | 774.439 ± 0.88
363.15 K, 33151 kPa | 775.369 ± 0.88
363.15 K, 33315 kPa | 775.421 ± 0.88
363.15 K, 34086 kPa | 776.049 ± 0.89
363.15 K, 35189 kPa | 776.934 ± 0.89
363.15 K, 37932 kPa | 779.076 ± 0.9
363.15 K, 40070 kPa | 780.754 ± 0.9
363.15 K, 41883 kPa | 782.107 ± 0.91
363.15 K, 44755 kPa | 784.308 ± 0.92
363.15 K, 48054 kPa | 786.713 ± 0.93
363.15 K, 50037 kPa | 788.134 ± 0.94
363.15 K, 51977 kPa | 789.492 ± 0.94
363.15 K, 55048 kPa | 791.627 ± 0.95
363.15 K, 57990 kPa | 793.615 ± 0.96
363.15 K, 60071 kPa | 794.972 ± 0.97
363.15 K, 62073 kPa | 796.302 ± 0.97
363.15 K, 64996 kPa | 798.178 ± 0.98
363.15 K, 66050 kPa | 798.847 ± 0.98

Reference: the NIST ThermoML archive (doi:10.1021/je5010214)
